Data as given in PMC12131194, “Rational design, synthesis, and evaluation of novel polypharmacological compounds targeting NaV1.5, KV1.5, and K2P channels for atrial fibrillation” (The Journal of Biological Chemistry, 2025).

System: human atrial cardiomyocytes from patients with AF
Assay: Patch-clamp action potential recordings, atrial cardiomyocytes of atrial fibrillation patients
Assay type: cell-based
Description: A total of 10 patients with sinus rhythm (SR) (N = 5) or atrial fibrillation (AF) (N = 5) undergoing open heart surgery for coronary artery bypass grafting, heart valve replacement or heart transplantation were included in the study (Table S7). A written informed consent was given by all patients. The study protocol involving human tissue samples was approved by the responsible Ethics Committee of the Medical Faculty of Heidelberg University (Germany; S-017/2013) and was conducted in accordance with the 1964 Declaration of Helsinki.
The right atrial human tissue samples were transported in chilled Ca^2+-free solution (100 mM NaCl, 10 mM KCl, 1.2 mM KH2PO4, 5 mM MgSO4, 50 mM taurine, 5 mM 3-(N-morpholino)propanesulfonic acid (MOPS), 30 mM 2,3-butanedione monoxime and 20 mM glucose, pH 7.0 with NaOH). After dissection into small chunks, the samples were rinsed for 5 minutes with calcium-free Tyrode's solution, which was oxygenated with 100% O2 at 37 °C. The samples were then digested with collagenase type I (288 U/ml; Worthington) and protease type XXIV (5 mg/ml; Sigma-Aldrich, Steinheim, Germany) for 10 to 15 min, followed by an increase in calcium concentration to 0.2 mM. After an additional 35 min of agitation in protease-free solution, rod-shaped single cardiomyocytes were harvested. The suspension was centrifuged, and the cells were resuspended in storage (“Kraftbrühe”, KB) medium (20 mM KCl, 10 mM KH2PO4, 25 mM glucose, 40 mM D-Mannitol, 70 mM K glutamate, 10 mM β-hydroxybutyrate, 20 mM taurine, 10 mM ethylene glycol tetraacetic acid (EGTA), and 1% albumin) until usage in patch-clamp experiments.
Patch-clamp glass pipettes were fabricated from borosilicate glass (1B120F-4; World Precision Instruments). After back-filling with patch-clamp internal solution (134 mM K gluconate, 6 mM NaCl, 1.2 mM MgCl2, 1 mM Mg-ATP, 10 mM HEPES, pH 7.2 with KOH), tip resistances ranged from 5 to 10 MΩ. All experiments were carried out at room temperature under constant superfusion with patch-clamp extracellular solution containing 137 mM NaCl, 5.4 mM KCl, 1 mM MgCl2, 2 mM CaCl2, 10 mM HEPES, 10 mM glucose (pH 7.3 with NaOH). AP-recordings were performed in current clamp mode: The holding current was adjusted such that the cell’s resting membrane potential was approximately −70 mV at baseline. APs were induced by short (5 ms) depolarizing current pulses at a rate of 0.5 Hz. Data was not adjusted for potential differences caused by liquid junctions, and no leak subtraction was performed.
Data acquisition and analysis were performed using the pCLAMP10 software (Axon Instruments) and statistical analysis was done using Prism 8 (GraphPad Software). Data is presented as the mean ± standard error of the mean (SEM). Statistical comparisons were made using Dunnett’s post hoc test. A p value of < 0.05 was considered significant.

CCCCN(CCCC)CC(=O)Nc1ccc(OC)cc1OC [Compound 6f, 2-(dibutylamine)-N-(2,4-dimethoxiphenyl)acetamide]
APD50 vs baseline (AF, 6.25 μM): increase in ADP50 with 6.25 μM 6f was significant | APD50 vs baseline (AF, 1, 6.25 and 12.5 μM): concentration-dependent prolongation trend | APD90 vs baseline (AF, 1, 6.25 and 12.5 μM): concentration-dependent prolongation trend | Action potential amplitude (APA) vs baseline (AF, 1, 6.25 and 12.5 μM): no changes | Maximal upstroke velocity vs baseline (AF, 1, 6.25 and 12.5 μM): no changes | Resting membrane potential (RMP) (AF, 1, 6.25 and 12.5 μM): significant concentration-dependent shift in the RMP to more negative values
